Assay results reported in patent US20090270435A1 (priority 2006, published 2009).
Counter-ions that a name gives are not always drawn.

target: T1, ACC1 from rat liver (Rattus norvegicus, UniProt P11497); test: Direct inhibition of ACC1 activity (14C-bicarbonate incorporation); format: biochemical; conditions: ACC1 from rat liver
T1 construct: The livers (for ACC1 preparation) or skeletal muscle tissue (for ACC2 preparation) are removed; from tissue; host or cells: liver of male CD rats (fasted, then fed a high sucrose diet)
Outline: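 ACC1 partially purified from livers of fasted/sucrose-refed male rats by PEG and ammonium sulfate fractionation, then preincubated 30 min at 37°C with 10 mM citrate and 1.0 mM MgCl2. Reaction ran 7 min at 37°C, stopped with HCl; acid-stable radioactivity counted by scintillation; HCl-first tubes served as blanks.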

SMILES	IC50 [nM]
O=C1CC2(CCN(C(=O)c3ccc4c(Cl)c[nH]c4c3)CC2)Oc2ccc(Cl)cc21 [Ex. L7, 6-chloro-1′-[(3-chloro-1H-indol-6-yl)carbonyl]spiro[chromene-2,4′-piperidin]-4(3H)-one]	183
Cc1cc2c(cc1Cl)C(=O)CC1(CCN(C(=O)c3ccc4[nH]ccc4c3)CC1)O2 [Ex. L8, 6-chloro-1′-(1H-indol-5-ylcarbonyl)-7-methylspiro[chromene-2,4′-piperidin]-4(3H)-one]	456
Cc1cc2c(cc1C)C(=O)CC1(CCN(C(=O)c3ccc4[nH]cc(Cl)c4c3)CC1)O2 [Ex. L9, 1′-[(3-chloro-1H-indol-5-yl)carbonyl]-6,7-dimethylspiro[chromene-2,4′-piperidin]-4(3H)-one]	43.8
COc1cccc2c1C(=O)CC1(CCN(C(=O)c3ccc4[nH]cc(Cl)c4c3)CC1)O2 [Ex. L10, 1′-[(3-chloro-1H-indol-5-yl)carbonyl]-5-methoxyspiro[chromene-2,4′-piperidin]-4(3H)-one]	101
COc1cccc2c1C(=O)CC1(CCN(C(=O)c3ccc4[nH]c(C)c(C)c4c3)CC1)O2 [Ex. L11, 1′-[(2,3-dimethyl-1H-indol-5-yl)carbonyl]-5-methoxyspiro[chromene-2,4′-piperidin]-4(3H)-one]	113
Cc1[nH]c2ccc(C(=O)N3CCC4(CC3)CC(=O)c3cc(Cl)ccc3O4)cc2c1C [Ex. L12, 6-chloro-1′-[(2,3-dimethyl-1H-indol-5-yl)carbonyl]spiro[chromene-2,4′-piperidin]-4(3H)-one]	< 1000
Cc1cc2c(cc1C)C(=O)CC1(CCN(C(=O)c3ccc4c(c3)CC(=O)N4)CC1)O2 [Ex. L13, 6,7-dimethyl-1′-[(2-oxo-2,3-dihydro-1H-indol-5-yl)carbonyl]spiro[chromene-2,4′-piperidin]-4(3H)-one]	< 3000
Cc1cc2c(cc1C)C(=O)CC1(CCN(C(=O)c3cccc4c3ccn4C)CC1)O2 [Ex. L15, 6,7-dimethyl-1′-[(1-methyl-1H-indol-4-yl)carbonyl]spiro[chromene-2,4′-piperidin]-4(3H)-one]	415
COc1cccc2c1C(=O)CC1(CCN(C(=O)c3ccc4[nH]c5c(c4c3)CCCC5)CC1)O2 [Ex. L16, 5-methoxy-1′-(2,3,4,9-tetrahydro-1H-carbazol-6-ylcarbonyl)spiro[chromene-2,4′-piperidin]-4(3H)-one]	65
Cc1cc2c(cc1C)C(=O)CC1(CCN(C(=O)c3cccc4[nH]cnc34)CC1)O2 [Ex. L17, 1′-(1H-benzimidazol-4-ylcarbonyl)-6,7-dimethylspiro[chromene-2,4′-piperidin]-4(3H)-one trifluoroacetic acid salt]	885
Cc1cc2c(cc1Cl)C(=O)CC1(CCN(C(=O)c3cccc4[nH]cnc34)CC1)O2 [Ex. L18, 1′-(1H-benzimidazol-4-ylcarbonyl)-6-chloro-7-methylspiro[chromene-2,4′-piperidin]-4(3H)-one]	2010
Cc1nc2c(C(=O)N3CCC4(CC3)CC(=O)c3cc(C)c(C)cc3O4)cccc2[nH]1 [Ex. L19, 6,7-dimethyl-1′-[(2-methyl-1H-benzimidazol-4-yl)carbonyl]spiro[chromene-2,4′-piperidin]-4(3H)-one trifluoroacetic acid salt]	< 3000
Cc1cc2c(cc1C)C(=O)CC1(CCN(C(=O)c3cccc4c3ncn4C(C)C)CC1)O2 [Ex. L21, 1′-[(1-isopropyl-1H-benzimidazol-4-yl)carbonyl]-6,7-dimethylspiro[chromene-2,4′-piperidin]-4(3H)-one trifluoroacetic acid salt]	670
Cc1cc2c(cc1C)C(=O)CC1(CCN(C(=O)c3ccc4nc[nH]c4c3)CC1)O2 [Ex. L22, 1′-(1H-benzimidazol-5-ylcarbonyl)-6,7-dimethylspiro[chromene-2,4′-piperidin]-4(3H)-one trifluoroacetic acid salt]	164
Cc1cc2c(cc1C)C(=O)CC1(CCN(C(=O)c3ccc4c(c3)ncn4C)CC1)O2 [Ex. L23, 6,7-dimethyl-1′-[(1-methyl-1H-benzimidazol-5-yl)carbonyl]spiro[chromene-2,4′-piperidin]-4(3H)-one trifluoroacetic acid salt]	1170
Cc1nc2cc(C(=O)N3CCC4(CC3)CC(=O)c3cc(C)c(C)cc3O4)ccc2[nH]1 [Ex. L24, 6,7-dimethyl-1′-[(2-methyl-1H-benzimidazol-5-yl)carbonyl]spiro[chromene-2,4′-piperidin]-4(3H)-one trifluoroacetic acid salt]	825
Cc1cc2c(cc1C)C(=O)CC1(CCN(C(=O)c3ccc4[nH]c(C(F)(F)F)nc4c3)CC1)O2 [Ex. L25, 6,7-dimethyl-1′-{[2-(trifluoromethyl)-1H-benzimidazol-5-yl]carbonyl}spiro[chromene-2,4′-piperidin]-4(3H)-one trifluoroacetic acid salt]	613
Cc1cc2c(cc1C)C(=O)CC1(CCN(C(=O)c3ccc4[nH]c(-c5ccccn5)nc4c3)CC1)O2 [Ex. L26, 6,7-dimethyl-1′-[(2-pyridin-2-yl-1H-benzimidazol-5-yl)carbonyl]spiro[chromene-2,4′-piperidin]-4(3H)-one trifluoroacetic acid salt]	63.5

SMILES	IC50 [nM]
COc1c(C(=O)N2CCC3(CC2)CC(=O)c2cc(C)c(C)cc2O3)cc(Cl)c2nc(C)[nH]c12 [Ex. L27, 1′-[(4-chloro-7-methoxy-2-methyl-1H-benzimidazol-6-yl)carbonyl]-6,7-dimethylspiro[chromene-2,4′-piperidin]-4(3H)-one]	> 1000
Cc1cc2c(cc1C)C(=O)CC1(CCN(C(=O)c3ccc4c(c3)nc(C)n4C)CC1)O2 [Ex. L28, 1′-[(1,2-dimethyl-1H-benzimidazol-5-yl)carbonyl]-6,7-dimethylspiro[chromene-2,4′-piperidin]-4(3H)-one]	3150
Cc1cc2c(cc1C)C(=O)CC1(CCN(C(=O)c3ccc4c(c3)nc(N3CCCC3)n4C)CC1)O2 [Ex. L29, 6,7-dimethyl-1′-[(1-methyl-2-pyrrolidin-1-yl-1H-benzimidazol-5-yl)carbonyl]spiro[chromene-2,4′-piperidin]-4(3H)-one]	130
CCc1nc2cc(C(=O)N3CCC4(CC3)CC(=O)c3ccccc3O4)ccc2n1-c1cccc(OC)c1 [Ex. L30, 1′-{[2-ethyl-1-(3-methoxyphenyl)-1H-benzimidazol-5-yl]carbonyl}spiro[chromene-2,4′-piperidin]-4(3H)-one]	390
CCc1nc2cc(C(=O)N3CCC4(CC3)CC(=O)c3c(OC)cccc3O4)ccc2n1-c1cccc(OC)c1 [Ex. L31, 1′-{[2-ethyl-1-(3-methoxyphenyl)-1H-benzimidazol-5-yl]carbonyl}-5-methoxyspiro[chromene-2,4′-piperidin]-4(3H)-one]	1140
Cc1cc2c(cc1C)C(=O)CC1(CCN(C(=O)c3ccc4c(c3)[nH]c(=O)n4C)CC1)O2 [Ex. L32, 6,7-dimethyl-1′-[(1-methyl-2-oxo-2,3-dihydro-1H-benzimidazol-5-yl)carbonyl]spiro[chromene-2,4′-piperidin]-4(3H)-one]	190
Cc1cc2c(cc1C)C(=O)CC1(CCN(C(=O)c3ccc4nc[nH]c4c3)CC1)O2 [Ex. L33, 1′-(1H-benzimidazol-6-ylcarbonyl)-6,7-dimethylspiro[chromene-2,4′-piperidin]-4(3H)-one]	99.9
O=C1CC2(CCN(C(=O)c3ccc4nc[nH]c4c3)CC2)Oc2ccc(Cl)cc21 [Ex. L34]	> 1000
COc1cccc2c1C(=O)CC1(CCN(C(=O)c3ccc4nc(-c5ccccc5)[nH]c4c3)CC1)O2 [Ex. L35, 5-methoxy-1′-[(2-phenyl-1H-benzimidazol-6-yl)-carbonyl]spiro[chromene-2,4′-piperidin]-4(3H)-one]	15.5
Cc1cc2c(cc1C)C(=O)CC1(CCN(C(=O)c3ccc4nc(-c5ccncc5)[nH]c4c3)CC1)O2 [Ex. L36, 6,7-dimethyl-1′-[(2-pyridin-4-yl-1H-benzimidazol-6-yl)carbonyl]spiro[chromene-2,4′-piperidin]-4(3H)-one trifluoroacetic acid salt]	50.7
Cc1cc2c(cc1C)C(=O)CC1(CCN(C(=O)c3ccc4[nH]nnc4c3)CC1)O2 [Ex. L37, 1′-(1H-1,2,3-benzotriazol-5-ylcarbonyl)-6,7-dimethylspiro[chromene-2,4′-piperidin]-4(3H)-one]	151
O=C1CC2(CCN(C(=O)c3ccc4[nH]nnc4c3)CC2)Oc2ccc(Cl)cc21 [Ex. L38, 1′-(1H-1,2,3-benzotriazol-5-ylcarbonyl)-6-chlorospiro[chromene-2,4′-piperidin]-4(3H)-one]	< 1000
Cc1cc2c(cc1C)C(=O)CC1(CCN(C(=O)c3ccc4[nH]nnc4c3)CC1)O2 [Ex. L39, 1′-(1H-1,2,3-benzotriazol-5-ylcarbonyl)-6,7-dimethylspiro[chromene-2,4′-piperidin]-4(3H)-one trifluoroacetic acid salt]	362
Cc1cc2c(cc1Cl)C(=O)CC1(CCN(C(=O)c3ccc4[nH]nnc4c3)CC1)O2 [Ex. L40, 1′-(1H-1,2,3-benzotriazol-5-ylcarbonyl)-6-chloro-7-methylspiro[chromene-2,4′-piperidin]-4(3H)-one]	4860
Cc1cc2c(cc1C)C(=O)CC1(CCN(C(=O)c3ccc4c(c3)nnn4C)CC1)O2 [Ex. L41, 6,7-dimethyl-1′-[(1-methyl-1H-1,2,3-benzotriazol-5-yl)carbonyl]spiro[chromene-2,4′-piperidin]-4(3H)-one]	< 3000
CC(C)n1nnc2cc(C(=O)N3CCC4(CC3)CC(=O)c3cc(Cl)ccc3O4)ccc21 [Ex. L42, 6-chloro-1′-[(1-isopropyl-1H-1,2,3-benzotriazol-5-yl)carbonyl]spiro[chromene-2,4′-piperidin]-4(3H)-one]	> 1000
Cc1cc2c(cc1C)C(=O)CC1(CCN(C(=O)c3ccc4ncccc4c3)CC1)O2 [Ex. L43, 6,7-dimethyl-1′-(quinolin-6-ylcarbonyl)spiro[chromene-2,4′-piperidin]-4(3H)-one trifluoroacetic acid salt]	121
